Test results: US20060141054A1, “Metal coordinated compositions” (priority 2004, published 2006)
One block for each molecule: values may come before it.

Tests used:
[1] = Equilibrium/stability constants of zinc complexes; assay type: physicochemical; settings: approximated
[2] = Equilibrium/stability constants of magnesium complexes; assay type: physicochemical; settings: estimated from literature precedents of similar compounds
[3] = water, 0.15 m kcl
[4] = Log D at pH 7.4 (octanol/water); assay type: physicochemical
physchem = settings: water, 0.15 m kcl

cumulative binding constant, β2 [1]: 8.5
Molecule: N[C@@H](Cc1ccccc1)C(=O)O.[Zn] [phenylalanine-zinc]

log Keq (estimated) [2]: 1.6
Molecule: Bis(acycloguanosinato)magnesium

Molecule: N[C@@H](Cc1cc(I)c(Oc2ccc(O)c(I)c2)c(I)c1)C(=O)[O-].N[C@@H](Cc1cc(I)c(Oc2ccc(O)c(I)c2)c(I)c1)C(=O)[O-].[Zn+2] [Bis(triiodothyroninato)zinc]
pKa (first listed) [3]: 6.66
pKa (second listed) [3]: 6.42
Log D7.4 [4]: 3.43

Molecule: N[C@@H](Cc1cc(I)c(Oc2ccc(O)c(I)c2)c(I)c1)C(=O)O [Triiodothyronine]
pKa (physchem; pKa (first listed)): 8.41
pKa (physchem; pKa (second listed)): 8.07
logD ([4]; Method Potentiometric, read-out: Log D7.4): 2.8
